Reference: PubChem BioAssay AID330 (DTP/NCI, 2004)
Where “and” joins values, the source holds several entries; their conditions need not be identical. Equal entries are not always repeated. Inconclusive results and toxic doses are left out. How the source made its calls: active means survival T/C of 150% or more; inactive means T/C below 125% in these data.

Test system: P388 leukemia ip, CD2F1 mice, survival T/C
Assay: NCI In Vivo Anticancer Drug Screen. Data for tumor model P388 Leukemia (intraperitoneal) in CD2F1 (CDF1) mice
Conditions: endpoint: median survival time, higher = longer survival
How it was run: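 Mice carrying the transplanted tumor received test compound or vehicle. Survival was recorded in each group, and the value is the treated-group measurement divided by that of the vehicle-treated control group.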

[1] = dose: 60.0 mg/kg/injection, schedule: Q01DX005 (ip), vehicle: saline with Tween-80
[2] = dose: 12.5 mg/kg/injection, schedule: Q01DX005 (ip), vehicle: saline with Tween-80
[3] = dose: 25.0 mg/kg/injection, schedule: Q01DX005 (ip), vehicle: saline with Tween-80
[4] = dose: 50.0 mg/kg/injection, schedule: Q01DX005 (ip), vehicle: saline with Tween-80
[5] = dose: 60.0 mg/kg/injection, schedule: Q01DX005 (ip), vehicle: saline
[6] = dose: 120.0 mg/kg/injection, schedule: Q01DX005 (ip), vehicle: saline
[7] = dose: 240.0 mg/kg/injection, schedule: Q01DX005 (ip), vehicle: saline
[8] = dose: 100.0 mg/kg/injection, schedule: Q01DX001 (ip), vehicle: saline with Tween-80
[9] = dose: 200.0 mg/kg/injection, schedule: Q01DX001 (ip), vehicle: saline with Tween-80
[10] = dose: 400.0 mg/kg/injection, schedule: Q01DX001 (ip), vehicle: saline with Tween-80
[11] = dose: 50.0 mg/kg/injection, schedule: Q04DX003 (ip), vehicle: saline with Tween-80
[12] = dose: 100.0 mg/kg/injection, schedule: Q04DX003 (ip), vehicle: saline with Tween-80
[13] = dose: 200.0 mg/kg/injection, schedule: Q04DX003 (ip), vehicle: saline with Tween-80
[14] = dose: 100.0 mg/kg/injection, schedule: Q01DX009 (ip), vehicle: saline
[15] = dose: 200.0 mg/kg/injection, schedule: Q01DX009 (ip), vehicle: saline
[16] = dose: 50.0 mg/kg/injection, schedule: Q01DX005 (ip), vehicle: Klucel (hydroxypropylcellulose) (HPC)
[17] = dose: 100.0 mg/kg/injection, schedule: Q01DX005 (ip), vehicle: Klucel (hydroxypropylcellulose) (HPC)
[18] = dose: 200.0 mg/kg/injection, schedule: Q01DX005 (ip), vehicle: Klucel (hydroxypropylcellulose) (HPC)
[19] = dose: 100.0 mg/kg/injection, schedule: Q04DX002 (ip), vehicle: saline
[20] = dose: 200.0 mg/kg/injection, schedule: Q04DX002 (ip), vehicle: saline
[21] = dose: 100.0 mg/kg/injection, schedule: Q01DX005 (ip), vehicle: saline with Tween-80
[22] = dose: 200.0 mg/kg/injection, schedule: Q01DX005 (ip), vehicle: saline with Tween-80
[23] = dose: 100.0 mg/kg/injection, schedule: Q04DX003 (ip), vehicle: Klucel (hydroxypropylcellulose) (HPC)
[24] = dose: 200.0 mg/kg/injection, schedule: Q04DX003 (ip), vehicle: Klucel (hydroxypropylcellulose) (HPC)
[25] = dose: 400.0 mg/kg/injection, schedule: Q04DX003 (ip), vehicle: Klucel (hydroxypropylcellulose) (HPC)

Measured: T/C

CCc1c(-c2ccccc2)nc(N(C)C)oc1=O
inactive: [1] 106 % of control | dose: 120.0 mg/kg/injection, schedule: Q01DX005 (ip), vehicle: saline with Tween-80 100 % of control | dose: 240.0 mg/kg/injection, schedule: Q01DX005 (ip), vehicle: saline with Tween-80 98 % of control

O=NC1C2CCC(C2)C1N=O.[Co].[c-]1[c-][c-][cH-][c-]1 (stereo unspecified)
inactive: [2] 96 % of control | [3] 98 % of control | [4] 98 % of control and 92 % of control

O=C1C2OC2C(=O)C2C3C=CC(C3)C12 (stereo unspecified)
inactive: dose: 75.0 mg/kg/injection, schedule: Q04DX002 (ip), vehicle: saline with Tween-80 99 % of control | dose: 150.0 mg/kg/injection, schedule: Q04DX002 (ip), vehicle: saline with Tween-80 96 % of control | dose: 300.0 mg/kg/injection, schedule: Q04DX002 (ip), vehicle: saline with Tween-80 95 % of control

COP(=O)(CC(=O)CCCCCO)OC
inactive: [5] 114 % of control | [6] 107 % of control | [7] 107 % of control

CC(O)C(O)C=O (stereo unspecified)
inactive: dose: 248.0 mg/kg/injection, schedule: Q01DX010 (ip), vehicle: saline 110 % of control

OC1CC2CCC(C1)N2 (stereo unspecified)
inactive: [5] 100 % of control | [6] 96 % of control

CCCC(C)N(CC)CCNc1cc(OC)cc2cccnc12 (stereo unspecified)
inactive: dose: 50.0 mg/kg/injection, schedule: Q01DX005 (ip), vehicle: saline 106 % of control | dose: 100.0 mg/kg/injection, schedule: Q01DX005 (ip), vehicle: saline 88 % of control

CCOC(=O)/C(=C\c1c(OC(C)=O)cn2c(C)cccc12)C(C)=O
inactive: [8] 98 % of control | [9] 94 % of control | [10] 94 % of control

CN(C)P(=S)(N(C)C)N1CCOCC1
inactive: [11] 104 % of control | [12] 88 % of control | [13] 96 % of control

O=[N+]([O-])c1ccc(/C=N\Nc2ccc([N+](=O)[O-])cn2)cc1
inactive: [14] 100 % of control | [12] 90 % of control | [15] 115 % of control | [13] 104 % of control | dose: 400.0 mg/kg/injection, schedule: Q01DX009 (ip), vehicle: saline 105 % of control | dose: 400.0 mg/kg/injection, schedule: Q04DX003 (ip), vehicle: saline with Tween-80 109 % of control

Cc1nc2ccccc2c(N)c1-c1cc(C)c2c(C)nc3ccccc3c2n1
inactive: dose: 25.0 mg/kg/injection, schedule: Q01DX005 (ip), vehicle: Klucel (hydroxypropylcellulose) (HPC) 88 % of control | [16] 87 % of control | [17] 90 % of control | [18] 88 % of control

Clc1nccc2c1ncn2[Te]n1cnc2c(Cl)nccc21
inactive: dose: 12.5 mg/kg/injection, schedule: Q04DX002 (ip), vehicle: saline 105 % of control | dose: 25.0 mg/kg/injection, schedule: Q04DX002 (ip), vehicle: saline 103 % of control

Nc1ccc2snc3c2c1C(=O)c1ccccc1-3
inactive: [16] 99 % of control | [17] 91 % of control | [18] 100 % of control

Cc1ccc(S(=O)(=O)CC2CCc3ccccc3C2=O)cc1 (stereo unspecified)
inactive: [19] 107 % of control | [20] 101 % of control | dose: 400.0 mg/kg/injection, schedule: Q04DX002 (ip), vehicle: saline 104 % of control

COc1ccc(-c2nn(-c3ccccc3)c(-c3ccc(OC)cc3)c2N=Nc2ccc(S(=O)(=O)Nc3nnc(C)s3)cc2)cc1
inactive: [8] 100 % of control | [9] 89 % of control | [10] 93 % of control

O=C1CSC(c2c(F)cccc2Cl)N1c1nncs1 (stereo unspecified)
inactive: dose: 60.0 mg/kg/injection, schedule: Q01DX005 (ip), vehicle: Klucel (hydroxypropylcellulose) (HPC) 102 % of control and 104 % of control | dose: 120.0 mg/kg/injection, schedule: Q01DX005 (ip), vehicle: Klucel (hydroxypropylcellulose) (HPC) 105 % of control

C[Se]C([Se]C)=C([Se]C)[Se]C
inactive: dose: 15.0 mg/kg/injection, schedule: Q01DX005 (ip), vehicle: saline with Tween-80 107 % of control | dose: 30.0 mg/kg/injection, schedule: Q01DX005 (ip), vehicle: saline with Tween-80 108 % of control | [1] 100 % of control and 91 % of control

CC(Br)CCc1ccccc1Br (stereo unspecified)
inactive: [16] 101 % of control | [17] 93 % of control | [18] 97 % of control

O=C(CC(O)(C(F)(F)Cl)C(F)(F)Cl)c1ccco1
inactive: [11] 109 % of control | [12] 118 % of control | [13] 100 % of control

BrN=C1C=CC(=NBr)C=C1
inactive: [4] 100 % of control (2×) and 106 % of control | [21] 101 % of control and 106 % of control and 91 % of control | [22] 101 % of control and 106 % of control and 120 % of control | dose: 400.0 mg/kg/injection, schedule: Q01DX005 (ip), vehicle: saline with Tween-80 89 % of control and 90 % of control

COC1N(Cc2ccccc2)C=C2C(=O)NC(=O)C3NC(c4ccccc4)C1(C)C23C (stereo unspecified)
inactive: [16] 90 % of control | [17] 91 % of control | [18] 88 % of control and 92 % of control

CCCCN(CC(O)c1cc2c(c3ccccc13)CCCC2)c1ccc(OC)cc1 (stereo unspecified)
inactive: [4] 115 % of control | [21] 101 % of control | [22] 101 % of control

CN1Cc2[nH]c3c(c2C(O)C1)C(=O)CC(C)(C)C3 (stereo unspecified)
inactive: dose: 50.0 mg/kg/injection, schedule: Q04DX002 (ip), vehicle: saline 94 % of control | [19] 103 % of control | [20] 101 % of control

Cn1cnc2cc(N3CCCCC3)c(N)cc2c1=O
inactive: [23] 107 % of control | [24] 99 % of control | [25] 102 % of control

C=CCN(CC=C)C1CCOC(OC)C1O (stereo unspecified)
inactive: dose: 30.0 mg/kg/injection, schedule: Q01DX005 (ip), vehicle: saline 100 % of control and 112 % of control | [5] 113 % of control [middle of 4 runs] | [6] 119 % of control [middle of 4 runs] | [7] 99 % of control and 119 % of control and 123 % of control

CCc1c2c(cc3c1[nH]c1ccccc13)C(=O)N(c1ccc(OC)cc1)C2=O
inactive: [16] 92 % of control | [17] 91 % of control | [18] 90 % of control

CC1(C)SC(C)(C)N2C(=O)[C@H]3N(C(=O)[C@@H]21)C(C)(C)SC3(C)C
inactive: [2] 100 % of control | [3] 94 % of control | [4] 99 % of control and 91 % of control | [21] 94 % of control | [22] 97 % of control

COc1ccc(/C=c2\sc3nc(-c4ccccc4)nn3c2=O)cc1
inactive: dose: 50.0 mg/kg/injection, schedule: Q01DX009 (ip), vehicle: Klucel (hydroxypropylcellulose) (HPC) 98 % of control | dose: 100.0 mg/kg/injection, schedule: Q01DX009 (ip), vehicle: Klucel (hydroxypropylcellulose) (HPC) 98 % of control

CCCCCC1(CCCCCCCC(=O)OCC)OCCO1
inactive: [23] 97 % of control | [24] 103 % of control | [25] 97 % of control

CN(C)c1cc2nc3ccccc3nc2cc1O
inactive: dose: 50.0 mg/kg/injection, schedule: Q01DX009 (ip), vehicle: saline 95 % of control | [14] 92 % of control | [15] 100 % of control
